Data from patent publication US11155586B2, “Cystine knot scaffold platform” (Genentech, Inc., priority 2015, dated 2021).
Values after ≈ are worked out from the molar mass of the structure shown. No end group written: not given here.

Legend:
hVEGF-A (8-109) = biological target: T1, hVEGF-A (8-109) (Homo sapiens, UniProt P15692); assay: SPR binding assay (BIACORE 3000, 37° C.); conditions: SPR affinity (Table 37) and cellular IC50 (Table 38), vs variant without F8Y
T1 sequence (P15692 34-135 isoform P15692-4): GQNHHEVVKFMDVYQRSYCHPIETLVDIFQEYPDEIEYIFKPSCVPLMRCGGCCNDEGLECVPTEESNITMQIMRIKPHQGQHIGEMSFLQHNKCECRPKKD
Summary of the method: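 VEGF-A, biotinylated and captured on streptavidin sensor or amine-coupled to CM5 at pH 5.0, to about 400 RU. Peptide concentration series in HBS-EP with 0.1% DMSO injected at […]; kinetics and affinities from 1:1 binding model fits.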

Solubility = format: physicochemical; conditions: vs variant without F8Y; read-out: improvement of solubility by F8Y substitution
Text: In variants derived from VEGF_CKP9.54 (such as the variants in Table 35) the amino acid at position 8 is Phe. Therefore, we sought to mutate Phe8 to Tyr I in some of the variants in Table 35, with the goal of improving affinity and/or solubility of the resulting F8Y variant. […] See Table 37, in which the binding affinities of certain variants (as determined by surface plasmon resonance) are compared, and Table 38 in which the potencies of certain variants (as determined by cellular IC50) are compared. […] VEGF_CKP9.54.90.67.F8Y was selected for further follow-up studies.

[1] = biological target: Wnt1 signaling (Homo sapiens); assay: Wnt luciferase reporter assay in HEK293 cells, Wnt1; format: cell-based
Sequence of Wnt1 signaling (Homo sapiens) (O75581 20-1613): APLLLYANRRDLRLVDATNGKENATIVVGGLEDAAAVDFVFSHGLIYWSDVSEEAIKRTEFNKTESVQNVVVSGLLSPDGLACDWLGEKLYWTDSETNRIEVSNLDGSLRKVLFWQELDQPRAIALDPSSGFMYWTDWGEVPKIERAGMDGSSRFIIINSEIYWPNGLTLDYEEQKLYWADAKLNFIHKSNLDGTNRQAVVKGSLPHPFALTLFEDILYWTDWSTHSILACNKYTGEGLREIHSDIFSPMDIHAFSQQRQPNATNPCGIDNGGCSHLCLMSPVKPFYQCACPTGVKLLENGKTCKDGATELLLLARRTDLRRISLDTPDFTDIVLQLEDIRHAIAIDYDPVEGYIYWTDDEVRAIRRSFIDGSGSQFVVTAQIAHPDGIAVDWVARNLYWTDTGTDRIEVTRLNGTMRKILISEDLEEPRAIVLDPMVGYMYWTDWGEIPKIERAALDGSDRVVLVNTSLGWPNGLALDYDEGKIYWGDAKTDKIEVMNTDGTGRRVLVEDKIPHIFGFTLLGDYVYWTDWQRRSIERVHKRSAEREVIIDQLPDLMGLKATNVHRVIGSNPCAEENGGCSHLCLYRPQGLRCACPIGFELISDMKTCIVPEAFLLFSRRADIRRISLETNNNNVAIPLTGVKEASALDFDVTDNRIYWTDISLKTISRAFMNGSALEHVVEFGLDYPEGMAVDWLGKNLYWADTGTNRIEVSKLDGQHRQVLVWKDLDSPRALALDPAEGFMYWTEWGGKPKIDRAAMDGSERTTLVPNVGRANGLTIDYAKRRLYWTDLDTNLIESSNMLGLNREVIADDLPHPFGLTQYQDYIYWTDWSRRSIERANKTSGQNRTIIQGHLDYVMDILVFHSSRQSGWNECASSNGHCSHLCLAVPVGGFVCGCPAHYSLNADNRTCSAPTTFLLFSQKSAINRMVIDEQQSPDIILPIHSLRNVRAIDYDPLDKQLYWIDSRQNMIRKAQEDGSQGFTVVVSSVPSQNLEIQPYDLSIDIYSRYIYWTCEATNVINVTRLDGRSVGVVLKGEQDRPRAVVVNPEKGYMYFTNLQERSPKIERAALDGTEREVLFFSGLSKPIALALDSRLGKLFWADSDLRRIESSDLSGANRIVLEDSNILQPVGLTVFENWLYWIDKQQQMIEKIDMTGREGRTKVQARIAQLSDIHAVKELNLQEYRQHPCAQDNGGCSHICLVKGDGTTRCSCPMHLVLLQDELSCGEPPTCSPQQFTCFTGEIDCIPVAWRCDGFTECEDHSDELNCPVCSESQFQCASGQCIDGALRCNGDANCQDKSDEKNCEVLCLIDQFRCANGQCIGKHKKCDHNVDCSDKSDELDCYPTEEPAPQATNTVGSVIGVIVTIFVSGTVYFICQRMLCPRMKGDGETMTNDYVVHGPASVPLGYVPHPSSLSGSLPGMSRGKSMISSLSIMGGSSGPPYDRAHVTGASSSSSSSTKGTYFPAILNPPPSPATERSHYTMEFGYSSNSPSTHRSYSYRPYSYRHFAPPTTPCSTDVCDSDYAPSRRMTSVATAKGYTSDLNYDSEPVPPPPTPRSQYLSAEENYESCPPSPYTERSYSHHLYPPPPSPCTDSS
Description: HEK293 cells stably transfected with a firefly luciferase Wnt reporter (Gong et al. (2010) PLoS ONE 59: e12682). and pRL-SV40 Renilla luciferase (Promega) were grown to 90% confluence in DMEM:F12 (50:50) supplemented with 10% FBS, 2 mM GLUTAMAX™ and 40 μg/ml hygromycin. Cells were incubated in a 5% CO2 humidified incubator at 37° C. for 24 h. Following the incubation, the cells were trypsinized (0.05% Gibco 15400-54 in PBS) then diluted to 4×10^5 cells/ml in DMEM:F12 (50:50) supplemented with 10% FBS, 2 mM GLUTAMAX™. 20,000 cells were loaded into individual wells of white microtest 96-well optilux plates (catalog no. 353947) and incubated for ˜24 h. Each well was transfected using FUGENE® HD with Wnt1-pCDNA3.2 (5 ng/well) or Wnt3a-pCDNA3.2 (25 ng/well) then grown for 24 h. […]
Luciferase response in all assays was then measured with Promega's DUAL-GLO® kit according to the manufacturer's instructions, except using half the volume of each reagent. Firefly luminescence and Renilla luminescence were measured on a Perkin Elmer ENVISION™ Multilabel Reader. The ratios of firefly luminescence: Renilla luminescence were calculated and normalized to the ratio in control cells expressing or treated with the indicated Wnt protein. […] Statistical significance was determined using the Holm-Sidak method, with alpha=5.000%.

| Compound | effect of F8Y mutation on affinity/potency (hVEGF-A (8-109)) | solubility (Solubility) | selectivity for Wnt1 over Wnt3a signaling [1] |
| --- | --- | --- | --- |
| CC[C@H](C)[C@H](NC(=O)[C@@H]1CSSC[C@H](NC(=O)CN)C(=O)N[C@@H](CC(N)=O)C(=O)N[C@@H]([C@@H](C)CC)C(=O)N[C@@H](CCSC)C(=O)N[C@@H](CC(C)C)C(=O)N2CCC[C@H]2C(=O)N[C@@H](Cc2ccc(O)cc2)C(=O)N[C@@H](Cc2c[nH]c3ccccc23)C(=O)NCC(=O)N[C@H]2CSSC[C@H](NC(=O)[C@H](CCC(=O)O)NC(=O)[C@H](Cc3ccccc3)NC(=O)[C@H](CC(=O)O)NC(=O)[C@H](CCCNC(=N)N)NC(=O)CNC2=O)C(=O)N[C@@H](CCSC)C(=O)N[C@@H](CCC(=O)O)C(=O)N[C@@H](CCC(N)=O)C(=O)N1)C(=O)N[C@H]1CSSC[C@@H](C(=O)NCC(=O)O)NC(=O)[C@H](CO)NC(=O)[C@H](CCC(N)=O)NC(=O)[C@H](Cc2ccc(O)cc2)NC(=O)[C@H](Cc2ccc(O)cc2)NC(=O)[C@H](CCC(N)=O)NC1=O [VEGF_CKP9.54.90.67.F8Y] | modest improvement | ~2000 µg/mL (≈ 572 µM) |  |
| R19: LRP6 E1E2-binding EETI-II variant generated in soluble folded form (GCSNRVKVRACKQDSDCLAGCVCGPNGFCG; ends and bridges not checked; also: three disulfides, pairing not given here) |  |  | 11 fold |
